Patent publication US20050143354A1, “Association of an antithrombotic and aspirin” (priority 2002, published 2005)

Test system: arterial thrombosis in the guinea-pig
Test: arterial thrombosis test in the guinea-pig (cyclic flow reductions after carotid artery lesion)
Format: in vivo
Details: aspirin 2 mg/kg i.v. alone; not different from control animals
Description: This test is based on the model initially described by Roux et al. (Thromb Haemost 71: 252-256, 1994). The guinea-pigs are anaesthetised using ketamine+xylazine (90+12) mg.kg i.m.. The trachea is cannulated and spontaneous respiration by the animals maintained. The jugular vein is cannulated, allowing the intravenous administration of the compounds being tested. The carotid artery is isolated, and a Doppler probe is installed allowing the arterial blood flow to be measured. After stabilisation, a lesion to the artery wall is produced by means of a clip applied distally to the Doppler probe. Subsequent to that lesion, the blood flow decreases. When the flow reaches zero, the artery is lightly shaken, which allows the flow to be restored. The thrombosis process continues, leading again to the flow reducing and ceasing. The thrombotic phenomena accordingly result in cyclic flow reductions (CFR), which are observed over a period of 20 minutes. After that period, the animal is treated, or not, with compound (A), and the CFR are again observed for a period of 20 minutes. The experiments are carried out in control animals or in animals treated by the intravenous route with aspirin (2 mg/kg).
This study was carried out using the sodium salt of the (R) isomer of compound (A).

For `CC(=O)Oc1ccccc1C(=O)O` [aspirin], the “cyclic flow reductions (CFR)” value was 8±1 CFR/20 min.
